Experiments:
[1] = molecular target: T1, human dopamine D3 receptors (Homo sapiens, UniProt P35462); assay: Dopamine D3 receptor binding, [125I]-iodosulpride displacement; conditions: membranes of HEK-293 cells with human D3 receptors, 0.1 nM [125I]-iodosulpride
T1 construct: expressed in transfected cells; host or cells: HEK-293
Method: (§1) The substance to be tested was either dissolved in methanol/Chremophor® (BASF SE) or in dimethyl sulfoxide and then diluted with water to the desired concentration.
(§2) Each assay mixture was run in triplicate. • The incubation buffer contained 50 mM tris, 120 mM NaCl, 5 mM KCl, 2 mM CaCl2, 2 mM MgCl2 and 0.1% bovine serum albumin, 10 μM quinolone and 0.1% ascorbic acid (prepared fresh daily). […] Each assay mixture was run in triplicate. • The incubation buffer contained 50 mM tris, 120 mM NaCl, 5 mM KCl, 2 mM CaCl2, 2 mM MgCl2 and 0.1% bovine serum albumin. The buffer was adjusted to pH 7.4 with HCl. c) Measurement and Analysis: • After having been incubated at 25° C. for 60 minutes, the assay mixtures were filtered through a Whatman GF/B glass fiber filter under vacuum using a cell collecting device. The filters were transferred to scintillation viols using a filter transfer system. After 4 ml of Ultima Gold® (Packard) have been added, the samples were shaken for one hour and the radioactivity was then counted in a Beta-Counter (Packard, Tricarb 2000 or 2200CA).

[2] = molecular target: T2, human dopamine D2L receptors (long isoform) (Homo sapiens, UniProt P14416); assay: Dopamine D2L receptor binding, [125I]-iodospiperone displacement; conditions: selectivity ratio Ki (D2L)/Ki (D3)
T2 construct: expressed in transfected cells; host or cells: HEK-293
T2 sequence (P14416 whole entry, canonical isoform): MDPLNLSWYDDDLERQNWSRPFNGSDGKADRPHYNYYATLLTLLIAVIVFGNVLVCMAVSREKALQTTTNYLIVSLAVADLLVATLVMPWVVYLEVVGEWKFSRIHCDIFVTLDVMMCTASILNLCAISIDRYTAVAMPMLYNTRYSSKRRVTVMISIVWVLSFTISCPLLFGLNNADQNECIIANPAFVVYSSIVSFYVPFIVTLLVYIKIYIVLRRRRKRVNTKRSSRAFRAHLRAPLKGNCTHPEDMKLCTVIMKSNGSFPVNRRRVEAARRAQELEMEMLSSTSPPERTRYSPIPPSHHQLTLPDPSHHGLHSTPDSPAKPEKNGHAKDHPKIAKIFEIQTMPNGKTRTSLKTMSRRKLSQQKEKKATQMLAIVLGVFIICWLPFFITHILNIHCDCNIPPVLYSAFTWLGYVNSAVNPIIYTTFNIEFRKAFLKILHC
Method: as §1, §2

[3] = Determination of the microsomal half-life / microsomal clearance; format: in vitro ADME; conditions: human liver microsomes, 0.5 μM test substance, 0.25 mg microsomal protein/ml, pH 7.4, 37° C.
Method: The metabolic stability of the compounds of the invention was determined in the following assay.
The test substances were incubated in a concentration of 0.5 μM as follows:
0.5 μM test substance are preincubated together with liver microsomes from different species (from rat, human or other species) (0.25 mg of microsomal protein/ml) in 0.05 M potassium phosphate buffer of pH 7.4 in microtiter plates at 37° C. for 5 min. The reaction is started by adding NADPH (1 mg/mL). After 0, 5, 10, 15, 20 and 30 min, 50 μl aliquots are removed, and the reaction is immediately stopped and cooled with the same volume of acetonitrile. The samples are frozen until analyzed. The remaining concentration of undegraded test substance is determined by MSMS. The half-life (T1/2) is determined from the gradient of the signal of test substance/unit time plot, it being possible to calculate the half-life of the test substance, assuming first order kinetics, from the decrease in the concentration of the compound with time. The microsomal clearance (mCl) is calculated from mCl=1n2/T1/2/(content of microsomal protein in mg/ml)×1000 [[…]] (modified from references: Di, The Society for Biomoleculur Screening, 2003, 453-462; Obach, DMD, 1999 vol 27. N 11, 1350-1359).

T1 sequence (P35462 whole entry): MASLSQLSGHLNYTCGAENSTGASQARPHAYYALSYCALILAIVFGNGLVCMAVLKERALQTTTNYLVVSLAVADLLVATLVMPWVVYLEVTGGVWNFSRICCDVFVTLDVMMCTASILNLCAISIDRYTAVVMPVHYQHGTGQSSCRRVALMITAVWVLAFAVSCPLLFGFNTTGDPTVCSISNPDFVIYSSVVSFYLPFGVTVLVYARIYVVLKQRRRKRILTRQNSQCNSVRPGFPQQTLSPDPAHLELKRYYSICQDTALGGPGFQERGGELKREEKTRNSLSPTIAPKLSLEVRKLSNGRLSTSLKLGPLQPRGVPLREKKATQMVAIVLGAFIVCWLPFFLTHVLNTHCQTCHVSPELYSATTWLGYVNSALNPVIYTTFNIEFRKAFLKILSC

SMILES | Ki [1] [nM] | D2/D3, Ki (D2L)/Ki (D3) [2] | Human mCl [3]
COCCc1cc(N2CCN(CC[C@H]3C[C@H](NC(=O)C4CCC(O)CC4)C3)CC2)nc(C(C)(C)C)n1 (relative stereo) [Compound 11, N-[trans-3-[2-[4-[2-tert-butyl-6-(2-methoxyethyl)pyrimidin-4-yl]piperazin-1-yl]ethyl]cyclobutyl]-4-hydroxy-cyclohexanecarboxamide] | < 10 | ++ (++>20) | + (+: 20-120 μl min^−1 mg^−1)
COCCc1cc(N2CCN(CC[C@H]3CC[C@H](NC(=O)[C@H]4CC[C@H](O)CC4)CC3)CC2)nc(C(C)(C)C)n1 [Compound 2, trans-N-[trans-4-[2-[4-[2-tert-butyl-6-(2-methoxyethyl)pyrimidin-4-yl]piperazin-1-yl]ethyl]cyclohexyl]-4-hydroxy-cyclohexanecarboxamide] | < 10 | ++ (++>20) | + (+: 20-120 μl min^−1 mg^−1)
COCCc1cc(N2CCN(CC[C@H]3CC[C@@H](NC(=O)[C@H]4CC[C@H](O)CC4)CC3)CC2)nc(C(C)(C)C)n1 [Compound 3, trans-N-[cis-4-[2-[4-[2-tert-butyl-6-(2-methoxyethyl)pyrimidin-4-yl]piperazin-1-yl]ethyl]cyclohexyl]-4-hydroxy-cyclohexanecarboxamide] | < 10 | ++ (++>20) | + (+: 20-120 μl min^−1 mg^−1)
COCCc1cc(N2CCN(CC[C@H]3CC[C@H](NC(=O)[C@H]4CC[C@@H](O)CC4)CC3)CC2)nc(C(C)(C)C)n1 [Compound 4, cis-N-[trans-4-[2-[4-[2-tert-butyl-6-(2-methoxyethyl)pyrimidin-4-yl]piperazin-1-yl]ethyl]cyclohexyl]-4-hydroxy-cyclohexanecarboxamide] | < 10 | ++ (++>20) | ∘ (∘: >120 μl min^−1 mg^−1)
CC(C)(C)c1nc(C2CCC2)cc(N2CCN(CC[C@H]3CC[C@@H](NC(=O)[C@H]4CC[C@H](O)CC4)CC3)CC2)n1 [Compound 6, trans-N-[cis-4-[2-[4-(2-tert-butyl-6-cyclobutyl-pyrimidin-4-yl)piperazin-1-yl]ethyl]cyclohexyl]-4-hydroxy-cyclohexanecarboxamide] | < 10 | +++ (+++>50) | + (+: 20-120 μl min^−1 mg^−1)
COCCc1cc(N2CCN(CC[C@H]3C[C@H](NC(=O)[C@H]4CC[C@H](O)CC4)C3)CC2)nc(C(C)(C)C)n1.O=C(O)C(F)(F)F [Compound 7, Trans-N-[trans-3-[2-[4-[2-tert-butyl-6-(2-methoxyethyl)pyrimidin-4-yl]piperazin-1-yl]ethyl]cyclobutyl]-4-hydroxy-cyclohexanecarboxamide; 2,2,2-trifluoroacetic acid] | < 10 | +++ (+++>50) | + (+: 20-120 μl min^−1 mg^−1)
COCCc1cc(N2CCN(CC[C@H]3C[C@@H](NC(=O)[C@H]4CC[C@H](O)CC4)C3)CC2)nc(C(C)(C)C)n1.O=C(O)C(F)(F)F [Compound 8, trans-N-[cis-3-[2-[4-[2-tert-butyl-6-(2-methoxyethyl)pyrimidin-4-yl]piperazin-1-yl]ethyl]cyclobutyl]-4-hydroxy-cyclohexanecarboxamide; 2,2,2-trifluoroacetic acid] | < 10 | +++ (+++>50) | + (+: 20-120 μl min^−1 mg^−1)
CC(C)(C)c1nc(C2CCC2)cc(N2CCN(CC[C@H]3C[C@H](NC(=O)[C@H]4CC[C@H](O)CC4)C3)CC2)n1 [Compound 9, Trans-N-[trans-3-[2-[4-(2-tert-butyl-6-cyclobutyl-pyrimidin-4-yl)piperazin-1-yl]ethyl]cyclobutyl]-4-hydroxy-cyclohexanecarboxamide] | < 10 | +++ (+++>50) | + (+: 20-120 μl min^−1 mg^−1)
CC(C)(C)c1nc(C2CCC2)cc(N2CCN(CC[C@H]3C[C@@H](NC(=O)[C@H]4CC[C@H](O)CC4)C3)CC2)n1 [Compound 10, Trans-N-[cis-3-[2-[4-(2-tert-butyl-6-cyclobutyl-pyrimidin-4-yl)piperazin-1-yl]ethyl]cyclobutyl]-4-hydroxy-cyclohexanecarboxamide] | < 10 | +++ (+++>50) | + (+: 20-120 μl min^−1 mg^−1)

Now from value to molecule:

Ki [1] [nM] | D2/D3, Ki (D2L)/Ki (D3) [2] | Human mCl [3] | SMILES
< 10 | + (+>10) | + (+: 20-120 μl min^−1 mg^−1) | CC(C)(C)c1nc(C2CCC2)cc(N2CCN(CC[C@H]3CC[C@H](NC(=O)C4CC(O)(C(F)(F)F)C4)CC3)CC2)n1 (relative stereo) [Compound 19, N-[trans-4-[2-[4-(2-tert-butyl-6-cyclobutyl-pyrimidin-4-yl)piperazin-1-yl]ethyl]cyclohexyl]-3-hydroxy-3-(trifluoromethyl)cyclobutanecarboxamide]
< 10 | ++ (++>20) | ∘ (∘: >120 μl min^−1 mg^−1) | COCCc1cc(N2CCN(CC[C@H]3CC[C@H](NC(=O)C4CC(O)(C(F)(F)F)C4)CC3)CC2)nc(C(C)(C)C)n1 (relative stereo) [Compound 25, N-[trans-4-[2-[4-[2-tert-butyl-6-(2-methoxyethyl)pyrimidin-4-yl]piperazin-1-yl]ethyl]cyclohexyl]-3-hydroxy-3-(trifluoromethyl)cyclobutanecarboxamide]
< 50 | +++ (+++>50) | ++ (++: <20 μl min^−1 mg^−1) | COCCc1cc(N2CCN(CC[C@H]3CC[C@@H](NC(=O)C4CC(O)(C(F)(F)F)C4)CC3)CC2)nc(C(C)(C)C)n1 (relative stereo) [Compound 26, N-[cis-4-[2-[4-[2-tert-butyl-6-(2-methoxyethyl)pyrimidin-4-yl]piperazin-1-yl]ethyl]cyclohexyl]-3-hydroxy-3-(trifluoromethyl)cyclobutanecarboxamide]
< 50 | ++ (++>20) | ∘ (∘: >120 μl min^−1 mg^−1) | COCCc1cc(N2CCN(CC[C@H]3CC[C@@H](NC(=O)[C@H]4CC[C@@H](O)CC4)CC3)CC2)nc(C(C)(C)C)n1 [Compound 5, Cis-N-[cis-4-[2-[4-[2-tert-butyl-6-(2-methoxyethyl)pyrimidin-4-yl]piperazin-1-yl]ethyl]cyclohexyl]-4-hydroxy-cyclohexanecarboxamide]
< 50 | +++ (+++>50) | + (+: 20-120 μl min^−1 mg^−1) | COCCc1cc(N2CCN(CC[C@H]3C[C@@H](NC(=O)[C@H]4CC[C@@H](O)CC4)C3)CC2)nc(C(C)(C)C)n1 [Compound 12, Cis-N-[cis-3-[2-[4-[2-tert-butyl-6-(2-methoxyethyl)pyrimidin-4-yl]piperazin-1-yl]ethyl]cyclobutyl]-4-hydroxy-cyclohexanecarboxamide]
 |  | + (+: 20-120 μl min^−1 mg^−1) | COCc1cc(N2CCN(CC[C@H]3CC[C@H](NC(=O)[C@H]4C[C@@H](O)C4)CC3)CC2)nc(C(C)(C)C)n1 [Compound 40, cis-N-[trans-4-[2-[4-[2-tert-butyl-6-(methoxymethyl)pyrimidin-4-yl]piperazin-1-yl]ethyl]cyclohexyl]-3-hydroxy-cyclobutanecarboxamide]

— patent US9388141B2, “Acylaminocycloalkyl compounds suitable for treating disorders that respond to modulation of dopamine D3 receptor” (AbbVie Deutschland GmbH & Co. KG, priority 2013, dated 2016)
